In article PMC9176744 (Science Advances, 2022):

Legend:
[1] = biological target: T1, DHS2^WT (Arabidopsis thaliana, UniProt Q00218); experiment: DHS enzyme assay; format: biochemical; details: for inhibition of DHS2 activity: screening of AAAs and AAA-derived metabolites as potential inhibitors (Fig. 2D); for IC50: recombinant DHS2^WT, varied effector concentrations; for inhibition at 1000 µM: read-out: inhibition of DHS2
[2] = biological target: T2, DHS1^WT (Arabidopsis thaliana, UniProt P29976); experiment: DHS enzyme assay; format: biochemical; details: for inhibition of DHS1 activity: screening of AAA-derived metabolites as potential inhibitors (Fig. 2D); for IC50: recombinant DHS1^WT, varied effector concentrations
[3] = test system: Arabidopsis plants (Col-0, sotaB4, sotaA4); experiment: Plant growth on media containing the effector
[4] = test system: DHS2^A4; experiment: DHS enzyme assay, DHS2 with the sotaA4 mutation; details: for inhibition of DHS2^A4: similar IC50 values to DHS2^WT; for inhibition of DHS2^A4 activity: concentration of up to 1 mM
[5] = biological target: T1, DHS2^WT; details: shown previously; cited from earlier work
[6] = test system: DHS2^F1; experiment: DHS enzyme assay, DHS2 with the sotaF1 mutation; details: concentration of up to 1 mM
[7] = test system: DHS2^A11; experiment: DHS enzyme assay, DHS2 with the sotaA11 mutation; details: for inhibition of DHS2^A11 activity: concentration of up to 1 mM; for change in IC50 versus corresponding WT enzyme: DHS2^A11, the weakest sota allele
[8] = test system: sota mutants (DHS enzymes); experiment: DHS enzyme assay, sota mutant enzymes compared with corresponding WT enzymes; format: biochemical, Arabidopsis thaliana; details: nearly all of the sota mutants; maximum increase
[9] = test system: DHS3 (DHS^WT isoform); experiment: DHS enzyme assay; format: biochemical, Arabidopsis thaliana; details: for inhibition of DHS3 WT activity: all DHS^WT isoforms
[10] = biological target: T2, DHS1^WT; details: shown previously; cited from earlier work
[11] = test system: DHS3 (DHS^WT isoform); details: shown previously; cited from earlier work
[12] = test system: DHS1^B4; experiment: DHS enzyme assay, DHS1 with the sotaB4 mutation; format: biochemical, Arabidopsis thaliana; details: comparable IC50 values to DHS1^WT
[13] = ILA feeding, media with 0, 250, 500 or 1000 μM, 3-week-old plants, fresh weight

T1 sequence (Q00218 34-507): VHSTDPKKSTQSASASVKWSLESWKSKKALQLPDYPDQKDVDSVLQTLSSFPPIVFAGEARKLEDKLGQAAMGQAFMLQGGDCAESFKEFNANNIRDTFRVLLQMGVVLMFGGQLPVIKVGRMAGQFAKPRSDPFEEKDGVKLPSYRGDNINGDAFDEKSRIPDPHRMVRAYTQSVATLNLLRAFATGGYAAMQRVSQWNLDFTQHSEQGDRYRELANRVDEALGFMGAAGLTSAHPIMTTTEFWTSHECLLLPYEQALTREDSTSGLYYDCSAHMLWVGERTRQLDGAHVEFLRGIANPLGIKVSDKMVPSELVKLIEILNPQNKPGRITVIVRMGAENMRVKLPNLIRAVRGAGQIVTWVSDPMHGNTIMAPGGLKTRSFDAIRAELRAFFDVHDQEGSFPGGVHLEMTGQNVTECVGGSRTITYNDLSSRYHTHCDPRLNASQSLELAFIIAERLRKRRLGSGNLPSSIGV
T2 sequence (P29976 49-525): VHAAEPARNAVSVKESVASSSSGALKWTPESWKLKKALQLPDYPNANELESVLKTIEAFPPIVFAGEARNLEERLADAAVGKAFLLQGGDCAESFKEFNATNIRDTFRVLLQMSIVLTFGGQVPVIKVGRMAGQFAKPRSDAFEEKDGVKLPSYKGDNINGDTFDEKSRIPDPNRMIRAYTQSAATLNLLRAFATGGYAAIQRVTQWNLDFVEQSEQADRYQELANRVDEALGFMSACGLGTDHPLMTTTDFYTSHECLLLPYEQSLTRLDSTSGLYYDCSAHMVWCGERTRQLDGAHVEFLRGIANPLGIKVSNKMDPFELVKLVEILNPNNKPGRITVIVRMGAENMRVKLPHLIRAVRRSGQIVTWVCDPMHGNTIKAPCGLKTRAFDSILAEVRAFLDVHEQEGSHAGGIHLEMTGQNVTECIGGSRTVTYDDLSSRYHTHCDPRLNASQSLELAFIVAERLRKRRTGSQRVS

With NCCc1c[nH]c2ccccc12 [tryptamine] the “inhibition of DHS2 activity” value [1] was “slight reduction” and the “inhibition of DHS1 activity” value [2] was “did not affect the activity”.

With O=C(O)C(=O)Cc1c[nH]c2ccccc12 [IPA, indole-3-pyruvate] the IC50 [1] was 58 µM, the “inhibition of DHS2 activity” value [1] was “inhibit” and the IC50 [2] was 241 µM. The “inhibition of DHS1 activity” value [2] was “inhibit” and the “effect on plant growth” value ([3]; independent of genotypes, even at very low concentration (<10 μM)) was “impaired plant growth”.

In the case of O=C(O)C(=O)CC1(C(=O)O)C=CC(O)C=C1 (stereo not shown) [prephenate], the “inhibition of DHS2^A4” value [4] is given as “still inhibited” and the “inhibition of DHS2” value [5] is given as “slightly inhibit”.

OCCc1ccc(O)cc1 [Tyrosol] gave an inhibition at 1000 µM [1] of roughly 30%.

With N[C@@H](Cc1c[nH]c2ccccc12)C(=O)O [Trp, tryptophan] the “inhibition of DHS2^F1 activity” value [6] was “not inhibited”, the “inhibition of DHS2^A4 activity” value [4] was “not inhibited” and the “inhibition of DHS2^A11 activity” value [7] was “not inhibited”. The “inhibition of DHS2” value [5] was “inhibit”.

For O=C(O)C(=O)Cc1ccc(O)cc1 [HPP, 4-Hydroxyphenylpyruvate], the “increase in IC50 versus corresponding WT enzymes” value [8] was “up to 7 fold”, the “change in IC50 versus corresponding WT enzyme” value [7] was “no significant change” and the “inhibition of DHS3 WT activity” value [9] was “effectively inhibited”.

For O=C(O)C1=C[C@@H](O)[C@@H](O)[C@H](O)C1 [shikimate], the “inhibition of DHS2^A4” value [4] is listed as “still inhibited” and the “inhibition of DHS2” value [5] is listed as “slightly inhibit”.

For O=C(O)Cc1cc(O)ccc1O [HGA, homogentisate], the IC50 [1] was 75 to 250 µM, the “inhibition of DHS2 activity” value [1] was “effectively inhibited” and the “increase in IC50 versus corresponding WT enzymes” value [8] was no more than 12 fold. The “change in IC50 versus corresponding WT enzyme” value [7] was “no significant change”, the IC50 [2] was 75 to 250 µM and the “inhibition of DHS1 activity” value [2] was “effectively inhibited”. The “inhibition of DHS3 WT activity” value [9] was “effectively inhibited” and the IC50 ([9]; recombinant DHS3 WT, varied effector concentrations) was 75 to 250 µM.

For O=C(O)/C=C/c1ccc(O)c(O)c1 [caffeate], the “inhibition of DHS1” value [10] is listed as “strongly inhibit”, the “inhibition of DHS2^A4” value [4] is listed as “still inhibited” and the “inhibition of DHS3” value [11] is listed as “strongly inhibit”. The “inhibition of DHS2” value [5] was “strongly inhibit” and the “inhibition of DHS1^B4” value [12] was “still strongly inhibited”.

With Nc1ccccc1C(=O)[O-].[Na+] [Anthranilate] the “inhibition of DHS2 activity” value [1] was “slight reduction” and the “inhibition of DHS1 activity” value [2] was “did not affect the activity”.

In the case of O=C(O)C(O)Cc1c[nH]c2ccccc12 (stereo not shown) [ILA, Indole-3-lactate], the “inhibition of DHS2 activity” value [1] is reported as “reduced the activity”, the “inhibition of DHS1 activity” value [2] is reported as “reduced the activity” and the “effect on growth of Col-0 WT plants” value [3, 13] is reported as “growth inhibition”. For the same compound, the “growth inhibition in sotaB4 mutant plants versus Col-0” value [3, 13] was “significantly weakened”.

Compound NCCc1ccc(O)cc1 [tyramine] has an inhibition at 1000 µM [1] of roughly 30%.

For N[C@@H](Cc1ccc(O)cc1)C(=O)O [Tyr, L-tyrosine], the “inhibition of DHS2^F1 activity” value [6] was “not inhibited”, the “inhibition of DHS2^A4 activity” value [4] was “not inhibited” and the “inhibition of DHS2^A11 activity” value [7] was “not inhibited”.

In the case of O=C(O)C(=O)Cc1ccccc1 [PPY, phenylpyruvate], the “inhibition of DHS1 activity” value [2] is reported as “neither”.

For N[C@@H](CC1(C(=O)O)C=CC(O)C=C1)C(=O)O (stereo partly shown) [arogenate], the “inhibition of DHS2^A4” value [4] is listed as “still inhibited” and the “inhibition of DHS2” value [5] is listed as “slightly inhibit”.

In the case of C=C(O[C@@H]1C=C(C(=O)O)C=C[C@H]1O)C(=O)O [chorismate], the “inhibition of DHS1” value [10] is listed as “strongly inhibit”, the “inhibition of DHS2^A4” value [4] is listed as “still inhibited” and the “inhibition of DHS3” value [11] is listed as “strongly inhibit”. For the same compound, the “inhibition of DHS2” value [5] was “strongly inhibit” and the “inhibition of DHS1^B4” value [12] was “still strongly inhibited”.

With c1ccc2[nH]ccc2c1 [indole] the “inhibition of DHS1 activity” value [2] was “did not affect the activity”.

In the case of O=C(O)Cc1ccc(O)cc1 [4-hydroxyphenylacetate], the “inhibition of DHS1 activity” value [2] is reported as “neither”.
